Experimental findings from ChEMBL document CHEMBL1201862, “PubChem BioAssay data set” (2004) are described below.

Test systems include ACHN; DU-145; HL-60; Hs-578T; MCF7; MDA-MB-231; MDA-MB-435; NCI-H522; OVCAR-3; PC-3; SF-268; SK-MEL-2; SK-MEL-5; SK-OV-3; SNB-75; SW-620; T47D; U-251; RPMI-8226.
Holding throughout (assay): DTP human tumour cell line panel, 48 h

The structures appear in SMILES notation.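 Briefly, cells in 96-well plates were exposed to five compound concentrations for 48 h, and endpoints were estimated by linear interpolation. GI50 = concentration required for 50% inhibition of growth.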 Calls of active or inactive are those of the source. Cut-off read from the data, not from the text of the source: active = GI50 up to about 1.1 µM and inactive = higher.

As usually defined, the GI50 is the concentration that inhibits growth by half. Take `CC(=O)Oc1cccc2c1C(=O)CCCC2`: the GI50 in the assay with ACHN, in the assay on DU-145, in the assay with HL-60, in the assay on Hs-578T, in the assay with MCF7 and in the assay on MDA-MB-231 was > 100 µM (inactive) each time. The GI50 with MDA-MB-435, in the assay with NCI-H522, in the assay on OVCAR-3, in the assay on PC-3, with SF-268 and in the assay on SK-MEL-2 was > 100 µM (inactive) throughout. For the same compound, the GI50 in the assay on SK-MEL-5 was > 100 µM (inactive); with SK-OV-3 it was > 100 µM (inactive); in the assay on SNB-75 it was 0.0692 µM (active); in the assay on SW-620 it was > 100 µM (inactive); in the assay on T47D it was > 100 µM (inactive); with U-251 it was > 100 µM (inactive).
Take `Cc1ccccc1-n1c(=O)sc2c(=O)n(-c3ccccc3)c(=S)[nH]c21`: the GI50 with ACHN is > 100 µM (inactive); in the assay on HL-60, > 100 µM (inactive); with NCI-H522 it was 42.6 µM (inactive); in the assay with OVCAR-3, > 100 µM (inactive); in the assay on RPMI-8226 it was > 100 µM (inactive); in the assay on SF-268, > 100 µM (inactive). Further, the GI50 in the assay with SK-MEL-2, in the assay with SK-MEL-5, in the assay with SK-OV-3, in the assay on SNB-75, with SW-620 and in the assay on U-251 was > 100 µM (inactive) throughout.
In the case of `COc1ccc(S(=O)(=O)c2nnc(S(=O)(=O)Cc3ccccc3)s2)cc1`, the GI50 in the assay on ACHN was 12.7 µM (inactive); with DU-145, 17 µM (inactive); in the assay on Hs-578T it was 21.3 µM (inactive); in the assay with MCF7 it was 19.2 µM (inactive); in the assay with MDA-MB-231 it was 17.5 µM (inactive); in the assay on MDA-MB-435 it was 22.5 µM (inactive). Besides, the GI50 with NCI-H522 is 8.18 µM (inactive); in the assay on OVCAR-3, 32.2 µM (inactive); in the assay with PC-3, 21.1 µM (inactive); with RPMI-8226, 6.59 µM (inactive); in the assay with SF-268 it was 33.7 µM (inactive); with SK-MEL-2, 18.3 µM (inactive). Moreover, the GI50 in the assay on SK-MEL-5 is 19.5 µM (inactive); with SK-OV-3 it was 22.5 µM (inactive); in the assay on SNB-75, 16.4 µM (inactive); in the assay with SW-620, 15 µM (inactive); with T47D it was 29.6 µM (inactive); with U-251 it was 19.5 µM (inactive).
Turning to `Oc1ccc(Cl)cc1C1=NC(/N=C\c2ccccc2)=NC(c2ccccc2)C1` (stereo unspecified), the GI50 with DU-145 is > 100 µM (inactive); in the assay on Hs-578T, > 100 µM (inactive); in the assay with MCF7 it was 7.83 µM (inactive); in the assay on MDA-MB-231 it was 35.6 µM (inactive); in the assay with MDA-MB-435 it was > 100 µM (inactive); in the assay on NCI-H522 it was 12.1 µM (inactive). For the same compound, the GI50 is 11.4 µM (inactive) in the assay on OVCAR-3; > 100 µM (inactive) in the assay with PC-3; 7.19 µM (inactive) in the assay with SF-268; > 100 µM (inactive) in the assay on SK-MEL-2; 14.1 µM (inactive) in the assay with SK-MEL-5; 16.3 µM (inactive) in the assay on SK-OV-3. The GI50 is 17.5 µM (inactive) in the assay with SNB-75, > 100 µM (inactive) with SW-620, 13.3 µM (inactive) with T47D and 30.1 µM (inactive) in the assay with U-251.
With `CC(C)(C)OC(=O)NC(Cc1ccccc1)C(=O)OCN1C(=O)C2C3C=CC(C2C1=O)C1C2C(=O)N(COC(=O)C(Cc4ccccc4)NC(=O)OC(C)(C)C)C(=O)C2C31` (stereo unspecified), the GI50 with ACHN was 40.6 µM (inactive); in the assay with DU-145 it was 41.6 µM (inactive); with HL-60, 30.7 µM (inactive); in the assay on Hs-578T, 18.7 µM (inactive); with MCF7 it was 13.4 µM (inactive); with MDA-MB-231, 29.7 µM (inactive). For the same compound, the GI50 in the assay on MDA-MB-435 is 53.7 µM (inactive); in the assay on NCI-H522 it was 23.7 µM (inactive); in the assay on OVCAR-3, 63.1 µM (inactive); in the assay on PC-3, 29.5 µM (inactive); with RPMI-8226, 18.8 µM (inactive); in the assay with SF-268, 38.5 µM (inactive). Also, the GI50 with SK-MEL-2 was 29.8 µM (inactive); with SK-MEL-5, 28 µM (inactive); with SK-OV-3 it was 37.2 µM (inactive); in the assay on SNB-75 it was 19 µM (inactive); with SW-620, 26.3 µM (inactive); with T47D, 36.3 µM (inactive). Further, in the assay on U-251, the GI50 was 41.2 µM (inactive).
Consider `COC(=O)c1ccccc1CC(Cc1ccccc1)C(=O)OC` (stereo unspecified), for which the GI50 was > 100 µM (inactive) with ACHN; > 100 µM (inactive) with DU-145; 18.5 µM (inactive) in the assay on HL-60; 56 µM (inactive) with Hs-578T; 82 µM (inactive) with MCF7; > 100 µM (inactive) in the assay with MDA-MB-231. For the same compound, the GI50 in the assay on MDA-MB-435 is 75.3 µM (inactive); in the assay with NCI-H522, 50.6 µM (inactive); in the assay on OVCAR-3, 58.1 µM (inactive); with PC-3 it was 47.1 µM (inactive); in the assay on RPMI-8226 it was 27.6 µM (inactive); in the assay on SF-268 it was 20.3 µM (inactive). In addition, the GI50 is 36.8 µM (inactive) in the assay on SK-MEL-2; 22.8 µM (inactive) in the assay on SK-MEL-5; 36.3 µM (inactive) in the assay with SK-OV-3; 20 µM (inactive) in the assay with SNB-75; > 100 µM (inactive) in the assay with SW-620; > 10 µM (inactive) with T47D. The GI50 with U-251 is 30.8 µM (inactive).
Turning to `O=C(CSSCC(=O)OCCS(=O)(=O)Nc1ccc(Br)cc1)OCCS(=O)(=O)Nc1ccc(Br)cc1`, the GI50 is 18 µM (inactive) with ACHN; 14.7 µM (inactive) in the assay on HL-60; 6.53 µM (inactive) in the assay on NCI-H522; 13.1 µM (inactive) in the assay with OVCAR-3; 10 µM (inactive) in the assay on RPMI-8226; 13.9 µM (inactive) with SF-268. Also, the GI50 was 12.5 µM (inactive) with SK-MEL-2; 11.8 µM (inactive) in the assay on SK-MEL-5; 18.9 µM (inactive) with SK-OV-3; 28.2 µM (inactive) in the assay on SNB-75; 8.45 µM (inactive) in the assay on SW-620; 21.7 µM (inactive) in the assay on U-251.
`CN(C)CC[N+]1=Nc2cccc3cccc(c23)N1`: the GI50 in the assay with ACHN was 28.1 µM (inactive); in the assay on HL-60 it was 24.3 µM (inactive); in the assay on NCI-H522, 33.7 µM (inactive); in the assay on OVCAR-3, > 100 µM (inactive); with RPMI-8226, 35.1 µM (inactive); with SF-268 it was > 89.9 µM (inactive). Further, the GI50 in the assay on SK-MEL-2 was > 100 µM (inactive); with SK-MEL-5, > 52.8 µM (inactive); in the assay with SK-OV-3, > 100 µM (inactive); with SNB-75 it was > 76.6 µM (inactive); in the assay with SW-620, 20.2 µM (inactive); in the assay on U-251, > 68.5 µM (inactive).
With `COc1cc(/C=C2\[C@H]3c4c(c(OC)c(C)c(OC)c4OC)C[C@@H](C(=O)N2Cc2ccccc2)N3C(=O)OC(C)C)c(OC)c(C)c1OC`, the GI50 is > 100 µM (inactive) in the assay on ACHN; 19.8 µM (inactive) with HL-60; 27.5 µM (inactive) in the assay on NCI-H522; 67.3 µM (inactive) in the assay with OVCAR-3; 27.2 µM (inactive) in the assay on RPMI-8226; > 100 µM (inactive) in the assay with SF-268. The GI50 with SK-MEL-2 was > 100 µM (inactive); in the assay with SK-MEL-5, 48.4 µM (inactive); with SK-OV-3, 2.52 µM (inactive); in the assay with SNB-75 it was > 100 µM (inactive); in the assay on SW-620 it was 54 µM (inactive); with U-251, 53.1 µM (inactive).
For the compound `NC(=O)C12C3C4C1C1C2C3C41C(N)=O` (stereo unspecified), the GI50 with ACHN, with HL-60, in the assay on NCI-H522, in the assay on OVCAR-3, with RPMI-8226 and with SF-268 was > 100 µM (inactive) each time. Moreover, the GI50 with SK-MEL-2, with SK-MEL-5, in the assay with SK-OV-3, in the assay on SNB-75, in the assay on SW-620 and in the assay with U-251 was > 100 µM (inactive) throughout.
Take `CCOC(=O)/C(C#N)=C\Sc1ccccc1`: the GI50 in the assay on ACHN is 17.1 µM (inactive); with HL-60, 7.23 µM (inactive); with NCI-H522, 3.21 µM (inactive); in the assay with OVCAR-3, 17.4 µM (inactive); with RPMI-8226, 13.7 µM (inactive); with SF-268 it was 3.73 µM (inactive). The GI50 in the assay with SK-MEL-2 was 25 µM (inactive); with SK-MEL-5 it was 22.3 µM (inactive); in the assay on SK-OV-3 it was 36.6 µM (inactive); with SNB-75, 18.8 µM (inactive); in the assay with SW-620 it was 25.9 µM (inactive); in the assay with U-251 it was 11.3 µM (inactive).
`COC(=O)C(CC(=O)Nc1ccc(Cl)c(Cl)c1)C(=O)C(=O)Nc1ccc(Cl)c(Cl)c1` (stereo unspecified): the GI50 with ACHN, with HL-60, in the assay with NCI-H522, in the assay with OVCAR-3, in the assay with RPMI-8226 and with SF-268 was > 100 µM (inactive) in each case. Also, the GI50 in the assay on SK-MEL-2, in the assay with SK-MEL-5, in the assay with SK-OV-3, with SNB-75, in the assay with SW-620 and in the assay on U-251 was > 100 µM (inactive) throughout.
Consider `O[C@H]1[C@H]2[C@H](O)CCCN2C[C@H]1O` [TRIDOLGOSIR], for which the GI50 in the assay on ACHN, in the assay on HL-60, with NCI-H522, in the assay with OVCAR-3, in the assay with RPMI-8226 and with SF-268 was > 100 µM (inactive) each time. Moreover, the GI50 with SK-MEL-2, in the assay on SK-MEL-5, with SK-OV-3, in the assay with SNB-75, in the assay on SW-620 and in the assay on U-251 was > 100 µM (inactive) in each case.
